Data: patent US5770687A, “Comformationally constrained backbone cyclized somatostatin analogs” (Peptor Limited, priority 1996, dated 1998)
Where two headings read alike, the source gives them in different places. Peptide text beside a SMILES is read from it.

Key:
[1] = In vitro biostability in human serum (HPLC); type: in vitro ADME; conditions: 37° C.
Procedure: Analogs are tested for stability by their resistance to enzymatic degradation by incubation in serum or in tissue homogenate, separation of the proteins and recording of the peptide peaks by HPLC before and after incubation. […] These peaks are separated and characterized by mass spectrometry, N-terminal sequence and comparison to purified peptide peaks.
The assay was based on HPLC determination of peptide degradation as a function of time in serum at 37° C.

SSTR-3 = SSTR-3 (Homo sapiens, UniProt P32745); assay: Radioligand binding, inhibition of 125I-Tyr11-SRIF binding to cloned SSTR-3
Procedure: (§1) The somatostatin analogs were tested for their potency in inhibition of the binding of ^125 I-Tyr^11 -SRIF (based on the method described by Raynor et. al., Molecular Pharmacology 43, 838-844, 1993) to membrane preparations expressing the transmembranal somatostatin receptors (SSTR-1,2,3,4 or 5). The receptor preparations used for these tests were either from the cloned receptors selectively and stably expressed in Chinese Hamster Ovary (CHO) cells or from cell lines naturally expressing the SSTRs. […] The binding reactions were filtered, the filters were washed and the bound radioactivity was counted in gamma counter. […] In order to validate positive signals of the binding tests, and to eliminate non-specific signals, samples of irrelevant peptides, such as GnRH, that were synthesized and handled using the same procedures, were tested in the same assays as negative control samples.

rat SSTR-5 [2] = target: T1, rat SSTR-5 (Rattus norvegicus, UniProt P30938); assay: Radioligand binding, inhibition of 125I-Tyr11-SRIF binding to cloned rat SSTR-5
T1 sequence (P30938 1-363): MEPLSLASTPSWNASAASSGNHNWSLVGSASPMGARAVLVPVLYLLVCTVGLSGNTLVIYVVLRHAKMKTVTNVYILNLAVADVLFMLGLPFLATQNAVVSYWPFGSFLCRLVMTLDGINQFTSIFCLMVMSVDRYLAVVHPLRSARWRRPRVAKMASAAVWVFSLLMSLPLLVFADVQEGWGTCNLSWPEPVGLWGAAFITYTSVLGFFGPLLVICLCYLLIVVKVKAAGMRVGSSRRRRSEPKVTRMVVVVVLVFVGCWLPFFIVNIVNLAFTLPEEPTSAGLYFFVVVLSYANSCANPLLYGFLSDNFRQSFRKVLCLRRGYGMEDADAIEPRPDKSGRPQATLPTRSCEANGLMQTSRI
Procedure: as §1

SSTR-2 = assay: Radioligand binding, inhibition of 125I-Tyr11-SRIF binding to cloned SSTR-2
Procedure: as §1

human SSTR-5 = human SSTR-5 (Homo sapiens, UniProt P35346); assay: Radioligand binding, inhibition of 125I-Tyr11-SRIF binding to cloned human SSTR-5; conditions: cloned human receptor
Procedure: as §1

[3] = test system: Growth Hormone (GH) release; assay: Inhibition of growth hormone release in rats; type: in vivo, rat; conditions: Sprague-Dawley male rats, 10 mg/kg subcutaneously, versus saline
Procedure: In vivo determination of the pharmacodynamic properties of cyclic peptide SST analogs was carried out in rats, according to known procedures. Inhibition of Growth Hormone (GH) release as a result of peptide administration was measured in Sprague-Dawley male rats. […] Time course profiles for GH release under constant experimental conditions were measured.
Adult male Sprague-Dawley rats, specific pathogen free (SPF), weighing 200-350 g, were maintained on a constant light-dark cycle (light from 8:00 to 20:00 h), temperature (21±3° C.), and relative humidity (55±10%). Laboratory chow and tap water were available ad libitum. On the day of the experiment, rats were anesthetized with pentobarbitone (50 mg/kg). […] A single blood sample (0.6 ml) was taken from the exposed cannulated jugular vein for the determination of the basal GH levels (-15 min.). Immediately thereafter the appropriate peptide treatment was administered. […] A physiological saline solution (0.9% NaCl) was administered as a control. All peptides were administered subcutaneously in a final volume of 0.2 ml. Further sampling was carried out at 15, 30, 60, and 90 minutes after peptide administration. […]
Rat growth hormone (rGH) [^125 I] levels were determined by means of a radioimmunoassay kit (Amersham). […] All samples were measured in duplicate.

insulin release = assay: Glucose induced insulin release in rats; type: in vivo, rat
plasma amylase release = assay: Bombesin stimulated plasma amylase release in rats; type: in vivo, rat
Procedure: (§2) Inhibition of either insulin or amylase release has been reported (Reisine and Bell, ibid.) to be highly correlated with affinity to the SST receptor subtype SSTR-5, while i inhibition of pituitary growth hormone (GH) release, pancreatic glucagon, and gastric acid secretion were SSTR-2 mediated. […] These doses were compared to the synthetic analog SMS-201 995 administered at a dose of 10 μg/kg.
(§3) Male Wister rats (weighing 200-220 g) were anaesthetized with pentobarbital (60 mg/kg) by the intraperitoneal (IP) route. The animals were allowed free access to food and water until 18 h before experiment, when all food (but not the water) was withdrawn. Furthermore the animals were housed in cages with wide mesh wire bottoms to prevent coprophagia (feeding on excrement).
(§4) After cannulation, a 0.7 ml sample of blood was drawn from the jugular vein, and transferred into an Eppendorf tube containing 20 IU heparin solution 5000 IU/ml. One minute later the peptides were administered subcutaneously (SC in 0.2 ml of 0.9% NaCl). Control rats were pretreated with 0.2 ml of 0.9% NaCl. At time 0 (5 min. after collection of baseline blood sample-1) a bombesin infusion (50 nmol/kg/hr) was started in all animals. Additional blood samples were collected at constant time intervals of 60, 90 and 120 min. during bombesin infusion.
(§5) Blood samples were collected into ice-cold tubes containing heparin (20 IU/ml) and were centrifuged (1500 g×10 min.). Plasma samples were frozen and kept at -20° C. until assayed for amylase and lipase.
Amylase levels were measured in plasma with the commercial (Raichem™) Amylase reagent.

plasma lipase release = assay: Bombesin stimulated plasma lipase release in rats; type: in vivo, rat
Procedure: as §2, §3, §4, §5
Lipase levels were measured in plasma with a commercial kit (Randox™).

rat SSTR-5 [4] = target: T1, rat SSTR-5; conditions: Table 22; known SST analogs, literature values; read-out: IC50 value rSSTR 5; cited from earlier work
[5] = test system: somatostatin receptors (SSTR-1,2,3,4 or 5); assay: Radioligand binding assay, negative control peptides; conditions: irrelevant peptides tested in the same assays
Procedure: as §1

Lack of toxicity in rats = type: in vivo, rat; conditions: for respiratory disturbances, stereotyped behavior, muscle tone: rats observed for 4 hours post administration
Procedure: PTR 3013 was not toxic to the rats even with doses of 4 mg/kg. These two doses are several orders of magnitude higher than those needed to elicit the desired endocrine effect. The peptides dissolved in saline produced no untoward side effects on the central nervous system, cardiovascular system, body temperature, nor on the periphery of the animals.

[6] = Table 21, inhibition of iodinated SRIF-14 binding, CHO cells, tested at 10^-6, 10^-7, 10^-8 M, read-out: IC50 SSTR-2

SSTR-3, sequence (P32745 whole entry, species assumed): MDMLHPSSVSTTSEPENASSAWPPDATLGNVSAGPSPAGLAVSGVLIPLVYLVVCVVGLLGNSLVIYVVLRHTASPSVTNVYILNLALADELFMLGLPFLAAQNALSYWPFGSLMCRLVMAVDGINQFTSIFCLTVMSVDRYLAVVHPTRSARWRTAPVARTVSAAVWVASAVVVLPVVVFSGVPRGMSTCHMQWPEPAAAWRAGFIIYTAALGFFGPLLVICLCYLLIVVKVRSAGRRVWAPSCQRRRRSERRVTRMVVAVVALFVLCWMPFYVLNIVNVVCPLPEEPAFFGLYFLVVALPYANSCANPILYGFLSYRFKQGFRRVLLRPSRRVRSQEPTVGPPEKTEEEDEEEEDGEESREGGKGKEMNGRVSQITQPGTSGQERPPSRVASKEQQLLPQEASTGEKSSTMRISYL
human SSTR-5, sequence (P35346 whole entry): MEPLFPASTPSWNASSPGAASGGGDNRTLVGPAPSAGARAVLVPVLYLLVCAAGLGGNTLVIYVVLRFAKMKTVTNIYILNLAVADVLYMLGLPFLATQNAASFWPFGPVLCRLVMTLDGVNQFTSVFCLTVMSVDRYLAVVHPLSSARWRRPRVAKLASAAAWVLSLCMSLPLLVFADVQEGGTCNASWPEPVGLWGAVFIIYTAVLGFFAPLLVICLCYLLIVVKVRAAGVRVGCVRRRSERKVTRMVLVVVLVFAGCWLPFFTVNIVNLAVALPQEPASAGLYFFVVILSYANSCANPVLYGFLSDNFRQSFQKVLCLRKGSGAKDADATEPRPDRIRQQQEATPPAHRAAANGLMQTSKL

## C[C@@H](O)[C@H](NC(=O)CN1CCNC(=O)CCN(C(=O)[C@H](N)Cc2ccccc2)CC(=O)N[C@@H](Cc2ccccc2)C(=O)N[C@H](Cc2c[nH]c3ccccc23)C(=O)N[C@@H](CCCCN)C(=O)N[C@@H]([C@@H](C)O)C1=O)C(N)=O [PTR 3002] (HELM PEPTIDE1{[dF].[O=C(CN(CCC(=O)[*:3])[*:1])[*:2]].F.[dW].K.T.[O=C(CN(CCN[*:3])[*:1])[*:2]].T.[am]}$PEPTIDE1,PEPTIDE1,2:R3-7:R3$$$V2.0)
[1]
  in vitro biostability (peptide degradation as a function of time): as stable as Octreotide, is more stable than the corresponding non-cyclic structure, and is much more stable than SRIF

## C[C@@H](O)[C@H](NC(=O)CN1CCCNC(=O)CN(C(=O)[C@H](N)Cc2ccccc2)CC(=O)N[C@@H](Cc2ccccc2)C(=O)N[C@H](Cc2c[nH]c3ccccc23)C(=O)N[C@@H](CCCCN)C(=O)N[C@@H]([C@@H](C)O)C1=O)C(N)=O [PTR 3004]
SSTR-3
  IC50: > 10 µM
Rat SSTR-5 [2]
  IC50: > 2000 nM

## CC(C)[C@@H]1NC(=O)[C@H](CCCCN)NC(=O)[C@@H](Cc2c[nH]c3ccccc23)NC(=O)[C@H](Cc2ccc(O)cc2)NC(=O)[C@H](Cc2ccccc2)NCCNC(=O)CCCN([C@@H](Cc2ccccc2)C(=O)N[C@H](C(N)=O)[C@@H](C)O)C1=O [PTR 3046, cyclo(PheN2^6 -Tyr^7 -DTrp^8 -Lys^9 -Val^10 -PheC3^11)-Thr^12 -NH2] (HELM PEPTIDE1{[O=C([C@H](Cc1ccccc1)NCCN[*:3])[*:2]].Y.[dW].K.V.[O=C([C@H](Cc1ccccc1)N(CCCC(=O)[*:3])[*:1])[*:2]].T.[am]}$PEPTIDE1,PEPTIDE1,1:R3-6:R3$$$V2.0)
SSTR-2
  binding to SSTR-2, in words: does not bind
SSTR-2; [6]
  IC50: 500 nM
SSTR-2; text summary of Example 85 binding data, read-out: affinity to SSTR-2
  IC50: > 1000 nM
Human SSTR-5
  affinity to human SSTR-5, in words: high affinity
[3]
  inhibition of growth hormone release: not significantly different from saline
Insulin release; Wister rats, 7 μg/kg subcutaneously, glucose 0.5 g/kg IV, versus control rats, p<0.05
  decrease in insulin release: 43%
Insulin release; in vivo, from present study and manufacturer's ED 50 of Octreotide
  potency on insulin release relative to Octreotide: 4 times
Plasma amylase release; 3 μg/kg SC, 90 min.
  inhibition of bombesin induced release of plasma amylase: 31%
Plasma amylase release; 3 μg/kg SC, 120 min.
  inhibition of bombesin induced release of plasma amylase: 23%
Plasma amylase release; 25 μg/kg SC, 90 min.
  inhibition of bombesin induced release of plasma amylase: 60%
Plasma amylase release; 25 μg/kg SC, 120 min.
  inhibition of bombesin induced release of plasma amylase: 52%
Plasma lipase release; 3 μg/kg SC, 90 min.
  inhibition of bombesin-stimulated lipase secretion: 33%
Plasma lipase release; 3 μg/kg SC, 120 min.
  inhibition of bombesin-stimulated lipase secretion: 26%
Plasma lipase release; 12.5 μg/kg SC, 90 min.
  inhibition of bombesin-stimulated lipase secretion: 30%
Plasma lipase release; 12.5 μg/kg SC, 120 min.
  inhibition of bombesin-stimulated lipase secretion: 25%
Plasma lipase release; 25 μg/kg SC, 90 min.
  inhibition of bombesin-stimulated lipase secretion: 51%
Plasma lipase release; 25 μg/kg SC, 120 min.
  inhibition of bombesin-stimulated lipase secretion: 35%

## DPhe^5 -cyclo(Cys^6 -Tyr^7 -DTrp^8 -Lys^9 -Val^10 -Cys^11)-Trp^12 -NH2 [RC-160]
Rat SSTR-5 [4]
  IC50: 0.2 nM

## C[C@@H](O)[C@H](NC(=O)[C@H](Cc1ccccc1)NC(=O)CN1CCNC(=O)CCN(C(=O)[C@H](N)Cc2ccccc2)CC(=O)N[C@@H](Cc2ccccc2)C(=O)N[C@H](Cc2c[nH]c3ccccc23)C(=O)N[C@@H](CCCCN)C1=O)C(N)=O [PTR 3019] (HELM PEPTIDE1{[dF].[O=C(CN(CCC(=O)[*:3])[*:1])[*:2]].F.[dW].K.[O=C(CN(CCN[*:3])[*:1])[*:2]].F.T.[am]}$PEPTIDE1,PEPTIDE1,2:R3-6:R3$$$V2.0)
SSTR-2; [6]
  IC50: > 10000 nM

## C[C@@H](O)[C@@H]1NC(=O)[C@H](CCCCN)NC(=O)[C@@H](Cc2c[nH]c3ccccc23)NC(=O)[C@H](Cc2ccccc2)NC(=O)[C@@H](NC(=O)[C@H](N)Cc2ccccc2)CSSC[C@@H](C(=O)N[C@H](CO)[C@@H](C)O)NC1=O [Octreotide, DPhe^5 -cyclo(Cys^6 -Phe^7 -DTrp^5 -Lys^9 -Thr^10 -Cys^11)-Thr^12 -ol]
Rat SSTR-5 [4]
  IC50: 0.2 nM

## GnRH: irrelevant peptide tested as negative control sample
[5]
  binding activity of negative control samples: no binding activity

## CC(=O)N1CCCNC(=O)CCN(CC(=O)N[C@@H](Cc2ccccc2)C(=O)N[C@H](C(N)=O)[C@@H](C)O)C(=O)[C@H](CCCCN)NC(=O)[C@@H](Cc2c[nH]c3ccccc23)NC(=O)[C@H](Cc2ccccc2)NC(=O)C1 [PTR 3013] (HELM PEPTIDE1{[ac].[O=C(CN(CCCN[*:3])[*:1])[*:2]].F.[dW].K.[O=C(CN(CCC(=O)[*:3])[*:1])[*:2]].F.T.[am]}$PEPTIDE1,PEPTIDE1,2:R3-6:R3$$$V2.0)
SSTR-2; [6]
  IC50: > 10000 nM
Lack of toxicity in rats
  respiratory disturbances, stereotyped behavior, muscle tone: no respiratory disturbances
Lack of toxicity in rats; rats, doses of 4 mg/kg
  toxicity: not toxic

## C[C@@H](O)[C@H](NC(=O)CN1CCCNC(=O)CCN(C(=O)[C@H](N)Cc2ccccc2)CC(=O)N[C@@H](Cc2ccccc2)C(=O)N[C@H](Cc2c[nH]c3ccccc23)C(=O)N[C@@H](CCCCN)C(=O)N[C@@H]([C@@H](C)O)C1=O)C(N)=O [PTR 3007] (HELM PEPTIDE1{[dF].[O=C(CN(CCC(=O)[*:3])[*:1])[*:2]].F.[dW].K.T.[O=C(CN(CCCN[*:3])[*:1])[*:2]].T.[am]}$PEPTIDE1,PEPTIDE1,2:R3-7:R3$$$V2.0)
SSTR-3
  IC50: > 10 µM
Rat SSTR-5 [2]
  IC50: > 2000 nM
Lack of toxicity in rats
  respiratory disturbances, stereotyped behavior, muscle tone: no respiratory disturbances
